“Also recorded” adds a separate entry of the source.
What was measured:
[1] = tested on: RNA targets containing hexameric r(CUGCUG)-repeats (T1-T8); test: UV melting experiments of MPγPNA probes with RNA targets; assay type: binding; settings: for differences in the Tms of RNAs with mismatched probes: single (P5) and double (P6) base mismatch probes; for trend of Tms with number of binding-sites in the targets: 10 mM NaPi, 150 mM KCl, 2 mM MgCl2, pH 7.4, 8 μM strand concentration
Description: FIG. 7. UV-melting profiles of PI through P4 with T6. The concentration of T6 was 1 μM and that of each probe was 6 μM, prepared in a physiologically relevant buffer.
FIG. 8. UV-melting profiles of P4-RNA heteroduplexes in a physiologically relevant buffer at 8 μM strand concentration. The samples were prepared by mixing 8 μM of P4 with the respective RNA targets at the following concentrations: T1=8.0 μM, T2=4.0 μM, T4=2.0 μM, T6=1.3 μM, T8=1.0 μM in a physiological buffer and annealed at 90° C. for 5 min, followed by a gradual cooling to room temperature.
FIG. 9. UV-melting transitions of RNAs and the corresponding probe-RNA heteroduplexes containing the perfectly-matched and mismatched sequences as a function of the number of r(CUGCUG)n-binding-sites in the targets. Inset: UV-melting profiles Of RNA with P5 and P6 containing single and double base-mismatches, respectively.
UV Melting Experiments: All UV-melting samples were prepared by mixing MPγPNA with RNA targets at the indicated concentrations in a physiologically simulated buffer (10 mM NaPi (sodium phosphate buffer), 150 mM KCl, 2 mM MgCl2; pH 7-4), and annealed by incubation at 90° C. for 5 min followed by a gradual cooling to room temperature. UV melting curves were collected using Agilent Cary UV-Vis 300 spectrometer equipped with a thermoelectrically controlled multi-cell holder. UV-melting spectra were collected by monitoring UV-absorption at 260 nm from 25° C. to 95° C. in the heating runs, and from 95° C. to 25° C. in the cooling runs, both at the rate of 0.2° C. per min. […] The recorded spectra were smoothed using a 20-point adjacent averaging algorithm. The first derivatives of the melting curves were taken to determine the melting temperatures of the duplex.
All the experiments were conducted at a physiologically relevant ionic strength (10 mM NaPi, 150 mM KCl, and 2 mM MgCl2 at pH 7.4). RNA concentrations were prepared such that the number of r(CUGCUG)-repeats in each sample was the same. […] Based on this finding, we selected P4 and carried out UV-melting study with the various RNA targets. […] Pyrene-pyrene interaction is evident from the inverse absorption profiles of P4-T6 and P4-T8 in the 40-70° C. temperature range. Upon heating, the solvophobic effect becomes more pronounced due to the inverse intensity distribution of vibronic transition of pyrene excimer relative to monomer, Ae^o→o/Am^o→o˜0.6, prior to their dissociation upon further heating. […] The Tms of the P4-RNA series follow a positive linear correlation, Y=66+2X, with X being the number of binding-sites in the targets (FIG. 9). […] Such a phenomenon was also observed with PNA-ligand conjugates.

[2] = tested on: normal-length T6 and pathogenic T48 [r(CUG)96] RNA; test: Competitive binding assay (agarose gel, SYBR-Gold); settings: equimolar binding-sites of T6 and T48, 37° C. for 16 hrs
Description: FIG. 12. Selective binding of r(CUGCUG)n-RNA transcripts by P4. The samples were prepared by mixing pre-annealed RNAs with probes at 37° C. for 4 hrs. The ratios of P4 to the total RNA binding-sites were 0 (lane 3), ¼ (lane 4), ½ (lane 5), 1/1 (lane 6); and for the mismatched P5 at 1/1 (lane 7). Competitive Binding Assay: T6 was purchased from IDT. T48, the same as r(CUG)96, was prepared as previous described, except that the DNA template was (CTG)96. T6 and T48 were separately annealed by heating up to 90° C. for 5 min and gradually cooled to room temperature. Probes and RNA targets were mixed at the indicated concentrations and incubated in a physiologically simulated buffer at 37° C. for 4 hr in silicon-coated Eppendorf tubes. The samples were then loaded onto 2% agarose-gel containing IX SYBR-Gold with Tris-borate buffer and electrophoretically separated at 100 V for 15 min. The bands were visualized by UV-Transilluminator. To assess the recognition selectivity of P4 probe, we carried out a competitive binding assay. Equimolar binding-sites of the normal-length T6 and the pathogenic T48 [r(CUG)96, prepared according to our published protocol, were incubated with different concentrations of P4 at 37° C. for 16 hrs. The resulting mixtures were analyzed by agarose-gel and stained with SYBR-Gold for visualization.

[3] = tested on: rCUG^exp-MBNL1 complex (T48 with GST-MBNL1-F1); test: Analysis of T48-MBNL1 disruption by probe (gel-shift assay); assay type: biochemical; settings: T48 25 nM, GST-MBNL1-F1 400 nM; increasing probe concentrations
Description: FIG. 13. Displacement of MBNL1 from T48 by P4. P-T48 was allowed to form complexes with GST-MBNL1-FI prior to the addition of P4. The samples were prepared in a physiologically relevant buffer at the final T48 and GST-MBNL1-FI concentration of 25 nM and 400 nM, respectively.
Analysis of T48-MBNL1 Disruption by Probe: T48 and GST-MBNL1-F1 were prepared as previously described. Radioisotopically labeled T48 was incubated with GST-MBNL1-F1 in buffer containing 50 mM Tris, 50 mM NaCl, 50 mM KCl and 1 mM MgCl2 (pH 8.0) at the indicated concentrations at 25° C. for 30 minutes. The indicated concentration of P4 was added to T48-MBNL1 complex. The samples were immediately loaded to 1.5% agarose gels with 1× Tris-borate buffer and electrophoretically separated at 100 V for 2 hrs. The bands were visualized by phosphorimaging and quantified with ImageQuant (Molecular Dynamics).
Next, we determined whether P4 can disrupt the rCUG^exp-MBNL1 complex by performing a gel-shift assay. The RNA-protein complex was prepared by incubating 5′-^32P-labelled T48 with MBNL1 at a physiologically relevant condition. Upon confirmation of their binding, P4 was added and the resulting mixtures were incubated at 37° C. for 4 hrs prior to their analysis by nondenaturing PAGE and autoradiography. Formation of the T48-MBNL1 complexes is evident by the smeared patterns observed in lanes 2 through 4 of FIG. 13. […]

[4] = tested on: RNA targets containing r(CUGCUG)-repeats (T1-T8); test: Steady-state fluorescent measurements of P4-RNA duplexes (pyrene excimer emission); settings: P4 1 μM, equimolar binding sites T1-T8; 37° C., 1 hr
Description: (§1) FIG. 10. Fluorescent spectra of P4-RNA duplexes at equimolar concentrations (P4=1 μM; T1=1 μM, T2=½, T4 ¼, T6=⅙, T8 ⅛) following the incubation at 37° C. for 1 hr and excitation at 345 nm. Inset: Fluorescent signals at 480 nm as a function of time following the addition of P4 (1 μM) to T8 (⅛ μM), and P4 (1 μM) to [T1 (1 μM)+T8 (⅛ μM)] at 37° C.
Steady-State Fluorescent Measurements: All steady-state fluorescence samples were prepared by mixing P4-RNA duplexes at the indicated concentrations in a simulated physiological buffer and annealed by incubation at 90° C. for 5 min, followed by a gradual cooling to 37° C. The samples were incubated at 37° C. for 1 hr before the measurements. Steady-state fluorescence data were collected at 37° C. by Cary Eclipse Fluorescence Spectrometer. (εex=350 nm and εem=480 nm) with slit size.
(§2) To further corroborate these findings, we carried out fluorescent measurements under identical conditions. The samples were excited at 340 nm, and the fluorescent signals were recorded from 345 to 650 nm. Characteristic of the pyrene-pyrene excimer formation is the emission at 480 nm (FIG. 10). […] The samples were markedly different under UV-illumination, such that they could be distinguished with the naked eyes (FIG. 11).

[5] = tested on: T8 RNA (r(CUGCUG)-repeats), with or without competing T1; test: Real-time fluorescent binding kinetics
Description: as §1
Real-Time Fluorescent Binding Kinetics: For real-time fluorescent kinetic experiment the samples were prepared as followed: (1) P4 alone, (2) P4, T1 and T8 annealed prior to the measurement, (3) addition of P4 to T8 at 37° C., and (4) addition of P4 to T8 in the presence of T1 at equimolar binding sites. Realtime fluorescence data were collected at 37° C. by Cary Eclipse Fluorescence Spectrometer. (εex=350 nm and εem=480 nm) with slit size.
as §2

Substance	differences in the Tms of RNAs with mismatched probes [1]	recognition selectivity / binding to T48 versus T6 [2]	trend of Tms with number of binding-sites in the targets [1]	also measured
H-^LArg-^LLys(Pyr)-CTGCTG-^LLys(Pyr)-^LArg-NH2 [P6]	no discernible differences			
H-^LArg-^LLys(Pyr)-CAGCAG-^LLys(Pyr)-^LArg-NH2 [P4]		able to discriminate the pathogenic T48 from the wt-T12	monotonically increased with the number of binding-sites	binding cooperativity (UV-melting profiles) ([1]; with T6, T6 1 μM, probe 6 μM, physiologically relevant buffer, comparison of linker lengths P2 through P4): highest degree of binding cooperativity; also recorded: cooperative binding was clearly observed; disruption of rCUG^exp-MBNL1 complex / displacement of MBNL1 from T48 [3]: able to disrupt the rCUG^exp-MBNL1 complex; fluorescent intensities at 480 nm (pyrene-pyrene excimer) with number of binding-sites in RNAs [4]: gradual increase in the fluorescent intensities at 480 nm; hybridization lag-time with competing T1 strand ([5]; P4 1 μM added to T1 1 μM + T8 ⅛ μM (equimolar binding-sites) at 37° C.): 2 min; time to nearly complete hybridization to T8 ([5]; P4 1 μM added to T8 ⅛ μM at 37° C., fluorescence at 480 nm): ≤ 10 min; interaction with single-binding-site RNA ([5]; physiologically simulated condition, T1 competitor): weak and transient
H-^L-Arg-CAGCAG-^LArg-NH2 [P1]			plateaued at X˜3	
H-^LArg-^LLys(Pyr)-CATCAG-^LLys(Pyr)-^LArg-NH2 [P5]	no discernible differences	No evidence of binding		
